Results reported in patent US10130096B2, “Method for protecting useful plants or plant propagation material” (SYNGENTA PARTICIPATIONS AG, priority 2011, dated 2018).

System: Mycosphaerella arachidis (Cercospora arachidicola)
Test: Mycosphaerella arachidis liquid culture growth inhibition
Assay type: cell-based
Conditions: photometric, 4-5 days after application, read-out: control on Mycosphaerella arachidis
Experimental: (§1) Conidia of the fungus from cryogenic storage are directly mixed into nutrient broth (PDB potato dextrose broth). After placing a (DMSO) solution of test compound into a microtiter plate (96-well format), the nutrient broth containing the fungal spores is added.

| SMILES | inhibition of growth at 200 ppm |
| --- | --- |
| NCC(=O)OB1OCc2cc(Cl)ccc21 [Compound 9, Amino-acetic acid 5-chloro-3H-benzo[c][1,2]oxaborol-1-yl ester] | ≥ 80% |
| NCCCCOB1OCc2cc(Cl)ccc21 [Compound 10, 4-(5-Chloro-3H-benzo[c][1,2]oxaborol-1-yloxy)-butylamine] | ≥ 80% |
| NCCCOB1OCc2cc(F)ccc21 [Compound 12, 3-(5-Fluoro-3H-benzo[c][1,2]oxaborol-1-yloxy)-propylamine] | ≥ 80% |
| NCCCCOB1OCc2cc(F)ccc21 [Compound 13, 4-(5-Fluoro-3H-benzo[c][1,2]oxaborol-1-yloxy)-butylamine] | ≥ 80% |
| CCC(CN)OB1OCc2cc(Cl)ccc21 (stereo not drawn) [Compound 26, 2-(5-Chloro-3H-benzo[c][1,2]oxaborol-1-yloxy)-butylamine] | ≥ 80% |
| CCC(N)COB1OCc2cc(F)ccc21 (stereo not drawn) [Compound 30, 1-(5-Fluoro-3H-benzo[c][1,2]oxaborol-1-yloxymethyl)-propylamine] | ≥ 80% |

System: Glomerella lagenarium (Colletotrichum lagenarium)
Test: Glomerella lagenarium liquid culture growth inhibition
Assay type: cell-based
Conditions: Colletotrichum orbiculare, photometric, 3-4 days after application, read-out: control on Glomerella lagenarium
Experimental: as §1

| SMILES | inhibition of growth at 200 ppm |
| --- | --- |
| NCC(=O)OB1OCc2cc(Cl)ccc21 [Compound 9, Amino-acetic acid 5-chloro-3H-benzo[c][1,2]oxaborol-1-yl ester] | ≥ 80% |
| NCCCCOB1OCc2cc(Cl)ccc21 [Compound 10, 4-(5-Chloro-3H-benzo[c][1,2]oxaborol-1-yloxy)-butylamine] | ≥ 80% |
| NCCCOB1OCc2cc(F)ccc21 [Compound 12, 3-(5-Fluoro-3H-benzo[c][1,2]oxaborol-1-yloxy)-propylamine] | ≥ 80% |
| NCCCCOB1OCc2cc(F)ccc21 [Compound 13, 4-(5-Fluoro-3H-benzo[c][1,2]oxaborol-1-yloxy)-butylamine] | ≥ 80% |
| CCC(CN)OB1OCc2cc(Cl)ccc21 (stereo not drawn) [Compound 26, 2-(5-Chloro-3H-benzo[c][1,2]oxaborol-1-yloxy)-butylamine] | ≥ 80% |
| CCC(N)COB1OCc2cc(F)ccc21 (stereo not drawn) [Compound 30, 1-(5-Fluoro-3H-benzo[c][1,2]oxaborol-1-yloxymethyl)-propylamine] | ≥ 80% |

System: Pythium ultimum
Test: Pythium ultimum on Cotton/Pouch
Assay type: in vivo
Conditions: Globisporangium ultimum, 168 h, cotton, pouch, 7 days at 17° C.
Excerpt: A spore/mycelium suspension is pipetted into the pouch simultaneously.

| SMILES | pest or weed control at 20 ppm |
| --- | --- |
| NCC(=O)OB1OCc2cc(Cl)ccc21 [Compound 9, Amino-acetic acid 5-chloro-3H-benzo[c][1,2]oxaborol-1-yl ester] | ≥ 50% |
| NCCCOB1OCc2cc(F)ccc21 [Compound 12, 3-(5-Fluoro-3H-benzo[c][1,2]oxaborol-1-yloxy)-propylamine] | ≥ 50% |

System: Monographella nivalis (Microdochium nivale)
Test: Monographella nivalis liquid culture growth inhibition
Assay type: cell-based
Conditions: photometric, 4-5 days after application, read-out: control on Monographella nivalis
Experimental: as §1, with “added. The test plates are incubated at 24° C. and the inhibition of growth is determined photometrically 4-5 days after application.” for “added.”

| SMILES | inhibition of growth at 200 ppm |
| --- | --- |
| NCC(=O)OB1OCc2cc(Cl)ccc21 [Compound 9, Amino-acetic acid 5-chloro-3H-benzo[c][1,2]oxaborol-1-yl ester] | ≥ 80% |
| NCCCCOB1OCc2cc(Cl)ccc21 [Compound 10, 4-(5-Chloro-3H-benzo[c][1,2]oxaborol-1-yloxy)-butylamine] | ≥ 80% |
| NCCCOB1OCc2cc(F)ccc21 [Compound 12, 3-(5-Fluoro-3H-benzo[c][1,2]oxaborol-1-yloxy)-propylamine] | ≥ 80% |
| NCCCCOB1OCc2cc(F)ccc21 [Compound 13, 4-(5-Fluoro-3H-benzo[c][1,2]oxaborol-1-yloxy)-butylamine] | ≥ 80% |
| CCC(CN)OB1OCc2cc(Cl)ccc21 (stereo not drawn) [Compound 26, 2-(5-Chloro-3H-benzo[c][1,2]oxaborol-1-yloxy)-butylamine] | ≥ 80% |
| CCC(N)COB1OCc2cc(F)ccc21 (stereo not drawn) [Compound 30, 1-(5-Fluoro-3H-benzo[c][1,2]oxaborol-1-yloxymethyl)-propylamine] | ≥ 80% |

System: Pythium ultimum
Test: Example B-5: seed treatment against Pythium ultimum on cotton
Assay type: in vivo
Conditions: Globisporangium ultimum, rate of 200 g/100 kg seeds, infested soil, number of germinated, healthy plants
Experimental: The trial is kept for 1 week in a growth room at 20° C. and darkness. After this period the trial is transferred to a greenhouse where a temperature of 21° C. and a 14 h light period is provided until the trial is finished. The following assessments are made: number of germinated, healthy plants. Each number is determined for 150 seeds per treatment (3 replicates a 50 seeds).

| SMILES | pest or weed control at 200 g/100 kg seeds |
| --- | --- |
| NCCCCOB1OCc2cc(Cl)ccc21 [Compound 10, 4-(5-Chloro-3H-benzo[c][1,2]oxaborol-1-yloxy)-butylamine] | ≥ 50% |
| NCCCOB1OCc2cc(F)ccc21 [Compound 12, 3-(5-Fluoro-3H-benzo[c][1,2]oxaborol-1-yloxy)-propylamine] | ≥ 50% |
| NCCCCOB1OCc2cc(F)ccc21 [Compound 13, 4-(5-Fluoro-3H-benzo[c][1,2]oxaborol-1-yloxy)-butylamine] | ≥ 50% |
| CCC(CN)OB1OCc2cc(Cl)ccc21 (stereo not drawn) [Compound 26, 2-(5-Chloro-3H-benzo[c][1,2]oxaborol-1-yloxy)-butylamine] | ≥ 50% |
| CCC(N)COB1OCc2cc(F)ccc21 (stereo not drawn) [Compound 30, 1-(5-Fluoro-3H-benzo[c][1,2]oxaborol-1-yloxymethyl)-propylamine] | ≥ 50% |

System: Botryotinia fuckeliana (Botrytis cinerea)
Test: Botryotinia fuckeliana liquid culture growth inhibition
Assay type: cell-based
Conditions: photometric, 3-4 days after application, read-out: control on Botryotinia fuckeliana
Experimental: Conidia of the fungus from cryogenic storage are directly mixed into nutrient broth (Vogels broth). After placing a (DMSO) solution of test compound into a microtiter plate (96-well format), the nutrient broth containing the fungal spores is added.

| SMILES | inhibition of growth at 200 ppm |
| --- | --- |
| NCC(=O)OB1OCc2cc(Cl)ccc21 [Compound 9, Amino-acetic acid 5-chloro-3H-benzo[c][1,2]oxaborol-1-yl ester] | ≥ 80% |
| NCCCCOB1OCc2cc(Cl)ccc21 [Compound 10, 4-(5-Chloro-3H-benzo[c][1,2]oxaborol-1-yloxy)-butylamine] | ≥ 80% |
| NCCCOB1OCc2cc(F)ccc21 [Compound 12, 3-(5-Fluoro-3H-benzo[c][1,2]oxaborol-1-yloxy)-propylamine] | ≥ 80% |
| NCCCCOB1OCc2cc(F)ccc21 [Compound 13, 4-(5-Fluoro-3H-benzo[c][1,2]oxaborol-1-yloxy)-butylamine] | ≥ 80% |
| CCC(CN)OB1OCc2cc(Cl)ccc21 (stereo not drawn) [Compound 26, 2-(5-Chloro-3H-benzo[c][1,2]oxaborol-1-yloxy)-butylamine] | ≥ 80% |
| CCC(N)COB1OCc2cc(F)ccc21 (stereo not drawn) [Compound 30, 1-(5-Fluoro-3H-benzo[c][1,2]oxaborol-1-yloxymethyl)-propylamine] | ≥ 80% |

System: Pythium ultimum
Test: Pythium ultimum liquid culture growth inhibition
Assay type: cell-based
Conditions: Globisporangium ultimum, photometric, 2-3 days after application, read-out: control on Pythium ultimum
Experimental: as §1, with “Mycelia fragments and oospores of a newly grown liquid culture” for “Conidia”, “fungus” for “fungus from cryogenic storage”, “mycelia/spore mixture” for “spores”

| SMILES | inhibition of growth at 200 ppm |
| --- | --- |
| NCC(=O)OB1OCc2cc(Cl)ccc21 [Compound 9, Amino-acetic acid 5-chloro-3H-benzo[c][1,2]oxaborol-1-yl ester] | ≥ 80% |
| NCCCCOB1OCc2cc(Cl)ccc21 [Compound 10, 4-(5-Chloro-3H-benzo[c][1,2]oxaborol-1-yloxy)-butylamine] | ≥ 80% |
| NCCCOB1OCc2cc(F)ccc21 [Compound 12, 3-(5-Fluoro-3H-benzo[c][1,2]oxaborol-1-yloxy)-propylamine] | ≥ 80% |
| NCCCCOB1OCc2cc(F)ccc21 [Compound 13, 4-(5-Fluoro-3H-benzo[c][1,2]oxaborol-1-yloxy)-butylamine] | ≥ 80% |
| CCC(CN)OB1OCc2cc(Cl)ccc21 (stereo not drawn) [Compound 26, 2-(5-Chloro-3H-benzo[c][1,2]oxaborol-1-yloxy)-butylamine] | ≥ 80% |
| CCC(N)COB1OCc2cc(F)ccc21 (stereo not drawn) [Compound 30, 1-(5-Fluoro-3H-benzo[c][1,2]oxaborol-1-yloxymethyl)-propylamine] | ≥ 80% |

System: Thanatephorus cucumeris (Rhizoctonia solani)
Test: Thanatephorus cucumeris liquid culture growth inhibition
Assay type: cell-based
Conditions: photometric, 3-4 days after application, read-out: control on Thanatephorus cucumeris
Experimental: Mycelia fragments of a newly grown liquid culture of the fungus are directly mixed into nutrient broth (PDB potato dextrose broth). After placing a (DMSO) solution of the test compounds into a microtiter plate (96-well format), the nutrient broth containing the fungal material is added. The test plates are incubated at 24° C. and the inhibition of growth is determined photometrically 3-4 days after application.

| SMILES | inhibition of growth at 200 ppm |
| --- | --- |
| NCCCCOB1OCc2cc(Cl)ccc21 [Compound 10, 4-(5-Chloro-3H-benzo[c][1,2]oxaborol-1-yloxy)-butylamine] | ≥ 80% |
| NCCCOB1OCc2cc(F)ccc21 [Compound 12, 3-(5-Fluoro-3H-benzo[c][1,2]oxaborol-1-yloxy)-propylamine] | ≥ 80% |
| NCCCCOB1OCc2cc(F)ccc21 [Compound 13, 4-(5-Fluoro-3H-benzo[c][1,2]oxaborol-1-yloxy)-butylamine] | ≥ 80% |
| CCC(CN)OB1OCc2cc(Cl)ccc21 (stereo not drawn) [Compound 26, 2-(5-Chloro-3H-benzo[c][1,2]oxaborol-1-yloxy)-butylamine] | ≥ 80% |
| CCC(N)COB1OCc2cc(F)ccc21 (stereo not drawn) [Compound 30, 1-(5-Fluoro-3H-benzo[c][1,2]oxaborol-1-yloxymethyl)-propylamine] | ≥ 80% |

System: Fusarium culmorum
Test: Fusarium culmorum liquid culture growth inhibition
Assay type: cell-based
Conditions: photometric, 3-4 days after application, read-out: control on Fusarium culmorum
Experimental: Conidia of the fungus from cryogenic storage are directly mixed into nutrient broth (PDB potato dextrose broth). After placing a (DMSO) solution of test compound into a microtiter plate (96-well format), the nutrient broth containing the fungal spores is added. The test plates are incubated at 24° C. and the inhibition of growth is determined photometrically 3-4 days after application.

| SMILES | inhibition of growth at 200 ppm |
| --- | --- |
| NCC(=O)OB1OCc2cc(Cl)ccc21 [Compound 9, Amino-acetic acid 5-chloro-3H-benzo[c][1,2]oxaborol-1-yl ester] | ≥ 80% |
| NCCCCOB1OCc2cc(Cl)ccc21 [Compound 10, 4-(5-Chloro-3H-benzo[c][1,2]oxaborol-1-yloxy)-butylamine] | ≥ 80% |
| NCCCOB1OCc2cc(F)ccc21 [Compound 12, 3-(5-Fluoro-3H-benzo[c][1,2]oxaborol-1-yloxy)-propylamine] | ≥ 80% |
| NCCCCOB1OCc2cc(F)ccc21 [Compound 13, 4-(5-Fluoro-3H-benzo[c][1,2]oxaborol-1-yloxy)-butylamine] | ≥ 80% |
| CCC(CN)OB1OCc2cc(Cl)ccc21 (stereo not drawn) [Compound 26, 2-(5-Chloro-3H-benzo[c][1,2]oxaborol-1-yloxy)-butylamine] | ≥ 80% |
| CCC(N)COB1OCc2cc(F)ccc21 (stereo not drawn) [Compound 30, 1-(5-Fluoro-3H-benzo[c][1,2]oxaborol-1-yloxymethyl)-propylamine] | ≥ 80% |
